Measured values taken from patent publication US20260166045A1, “COMBINATION THERAPY COMPRISING GSPT1-DIRECTED MOLECULAR GLUE DEGRADERS AND PI3K/AKT/mTOR PATHWAY INHIBITORS” (Monte Rosa Therapeutics, Inc., priority 2022, published 2026).
“And” between values parts separate entries of the source, which are not always exact repeats. Equal values may be shown once.

How the values were obtained:
Assay in all cases: CellTiter-Glo 2.0 cell viability, 7x7 combination dose response matrix, synergy scoring
Assay type in all cases: cell-based
[1] = system: NCI-H2023 cell line
[2] = system: EBC-1 cell line
[3] = system: MDA-MB-231 cell line
[4] = system: CAL51 cell line; settings: CAL51
[5] = NCI-H2023, combined with Alpelisib 21-10000 nM, first compound 0.21-100 nM
[6] = NCI-H2023, combined with Capivasertib 21-10000 nM, first compound 0.21-100 nM
[7] = NCI-H2023, combined with Everolimus 2.1-1000 nM, first compound 0.21-100 nM
[8] = NCI-H2023, combined with GNE-477 21-10000 nM, first compound 0.21-100 nM
[9] = NCI-H2023, combined with KU-0063794 21-10000 nM, first compound 0.21-100 nM
[10] = NCI-H2023, combined with M2698 21-10000 nM, first compound 0.21-100 nM
[11] = EBC-1, combined with Alpelisib 21-10000 nM, first compound 0.21-100 nM
[12] = EBC-1, combined with Capivasertib 21-10000 nM, first compound 0.21-100 nM
[13] = EBC-1, combined with Everolimus 2.1-1000 nM, first compound 0.21-100 nM
[14] = EBC-1, combined with GNE-477 21-10000 nM, first compound 0.21-100 nM
[15] = EBC-1, combined with KU-0063794 21-10000 nM, first compound 0.21-100 nM
[16] = EBC-1, combined with M2698 21-10000 nM, first compound 0.21-100 nM
[17] = MDA-MB-231, combined with Alpelisib 41-10000 nM, first compound 0.41-100 nM
[18] = MDA-MB-231, combined with Capivasertib 41-10000 nM, first compound 0.41-100 nM
[19] = MDA-MB-231, combined with Everolimus 41-10000 nM, first compound 0.41-100 nM
[20] = MDA-MB-231, combined with GNE-477 41-10000 nM, first compound 0.41-100 nM
[21] = MDA-MB-231, combined with KU-0063794 41-10000 nM, first compound 0.41-100 nM
[22] = combined with Alpelisib 41-10000 nM, first compound 0.41-33.33 nM
[23] = combined with Alpelisib 41-10000 nM, first compound 0.41-100 nM
[24] = combined with Everolimus 41-10000 nM, first compound 0.41-100 nM
[25] = combined with GNE-477 41-10000 nM, first compound 0.41-100 nM
[26] = combined with HS173 41-10000 nM, first compound 0.41-100 nM
[27] = combined with KU-0063794 41-10000 nM, first compound 0.41-100 nM
[28] = combined with M2698 41-10000 nM, first compound 0.41-100 nM
[29] = combined with Serabelisib 41-10000 nM, first compound 0.41-100 nM
[30] = NCI-H2023, combined with GNE-477 21-10000 nM, first compound 1.05-500 nM
[31] = NCI-H2023, combined with KU-0063794 21-10000 nM, first compound 1.05-500 nM
[32] = NCI-H2023, combined with M2698 21-10000 nM, first compound 1.05-500 nM
[33] = EBC-1, combined with GNE-477 21-10000 nM, first compound 1.05-500 nM
[34] = EBC-1, combined with KU-0063794 21-10000 nM, first compound 1.05-500 nM
[35] = EBC-1, combined with M2698 21-10000 nM, first compound 1.05-500 nM
[36] = MDA-MB-231, combined with Alpelisib 41-10000 nM, first compound 4.1-1000 nM
[37] = MDA-MB-231, combined with Capivasertib 41-10000 nM, first compound 4.1-1000 nM
[38] = MDA-MB-231, combined with Everolimus 41-10000 nM, first compound 4.1-1000 nM
[39] = MDA-MB-231, combined with GNE-477 41-10000 nM, first compound 4.1-1000 nM
[40] = MDA-MB-231, combined with KU-0063794 41-10000 nM, first compound 4.1-1000 nM
[41] = MDA-MB-231, combined with M2698 41-10000 nM, first compound 4.1-1000 nM
[42] = combined with Alpelisib 41-10000 nM, first compound 4.1-1000 nM
[43] = combined with Capivasertib 41-10000 nM, first compound 4.1-1000 nM
[44] = combined with Everolimus 41-10000 nM, first compound 4.1-1000 nM
[45] = combined with GNE-477 41-10000 nM, first compound 4.1-1000 nM
[46] = combined with KU-0063794 41-10000 nM, first compound 4.1-1000 nM
[47] = combined with M2698 41-10000 nM, first compound 4.1-1000 nM

With `Cc1ccc(NC(=O)OCc2ccc3c(c2)C(=O)N(C2CCC(=O)NC2=O)C3)cc1Cl` (stereo not shown) [Compound 1-6, [2-(2,6-dioxopiperidin-3-yl)-3-oxo-2,3-dihydro-1H-isoindol-5-yl]methyl N-(3-chloro-4-methylphenyl)carbamate] the “Mean Bliss synergy score” value [1, 5] was 19.68, the “Mean Loewe synergy score” value [1, 5] was 8.92 and the “Mean Bliss synergy score” value [1, 6] was 22.78. For the same compound, the “Mean Loewe synergy score” value [1, 6] was 11.70, the “Mean Bliss synergy score” value [1, 7] was 13.21 and the “Mean Loewe synergy score” value [1, 7] was 17.02. The “Mean Bliss synergy score” value [1, 8] was 14.13, the “Mean Loewe synergy score” value [1, 8] was 5.10 and the “Mean Bliss synergy score” value [1, 9] was 18.40. For the same compound, the “Mean Loewe synergy score” value [1, 9] was 11.37, the “Mean Bliss synergy score” value [1, 10] was 12.91 and the “Mean Loewe synergy score” value [1, 10] was 11.66. The “Mean Bliss synergy score” value ([1]; combined with KU-0063794 (21 nM to 10 uM), NCI-H2023 cell line, mean across dose response matrix, 72 hrs) was 18.40, the “Mean Loewe synergy score” value ([1]; combined with M2698 (21 nM to 10 uM), NCI-H2023 cell line, mean across dose response matrix, 72 hrs) was 11.66 and the “Mean Bliss synergy score” value [2, 11] was 17.01. The “Mean Loewe synergy score” value [2, 11] was 3.84, the “Mean Bliss synergy score” value [2, 12] was 16.12 and the “Mean Loewe synergy score” value [2, 12] was 6.11. For the same compound, the “Mean Bliss synergy score” value [2, 13] was 7.12, the “Mean Loewe synergy score” value [2, 13] was 8.08 and the “Mean Bliss synergy score” value [2, 14] was 10.24. For the same compound, the “Mean Loewe synergy score” value [2, 14] was 2.07, the “Mean Bliss synergy score” value [2, 15] was 8.70 and the “Mean Loewe synergy score” value [2, 15] was 4.67. The “Mean Bliss synergy score” value [2, 16] was 8.18, the “Mean Loewe synergy score” value [2, 16] was 8.00 and the “Mean Loewe synergy score” value ([2]; combined with Everolimus (2.1 nM to 1 uM), EBC-1 cell line, mean across dose response matrix, 72 hrs) was 8.08. For the same compound, the “Mean Bliss synergy score” value [3, 17] was 1.80, the “Mean Loewe synergy score” value [3, 17] was 5.93 and the “Mean Bliss synergy score” value [3, 18] was 5.75. For the same compound, the “Mean Loewe synergy score” value [3, 18] was 7.02, the “Mean Bliss synergy score” value [3, 19] was 8.98 and the “Mean Loewe synergy score” value [3, 19] was 11.33. The “Mean Bliss synergy score” value [3, 20] was 2.23, the “Mean Loewe synergy score” value [3, 20] was 5.29 and the “Mean Bliss synergy score” value [3, 21] was 3.19. The “Mean Loewe synergy score” value [3, 21] was 6.78, the “Mean Loewe synergy score” value ([3]; MDA-MB-231, combined with M2698 41-10000 nM, first compound 0.41-100 nM) was 4.77 and 5.02 and the “Mean Bliss synergy score” value ([3]; combined with Everolimus (41 nM to 10 uM), MDA-MB-231 cell line, mean across dose response matrix, 72 hrs) was 8.98. The “Mean Bliss synergy score” value [4, 22] was 4.15, the “Mean Loewe synergy score” value [4, 22] was 7.89 and the “Mean Bliss synergy score” value [4, 23] was 13.06 and 19.57. For the same compound, the “Mean Loewe synergy score” value [4, 23] was 11.36 and 7.04, the “Mean Bliss synergy score” value ([4]; combined with Capivasertib 41-10000 nM, first compound 0.41-100 nM) was 24.03 and 20.68 and the “Mean Bliss synergy score” value [4, 24] was 20.31. For the same compound, the “Mean Loewe synergy score” value [4, 24] was 22.83, the “Mean Bliss synergy score” value [4, 25] was 5.80 and the “Mean Loewe synergy score” value [4, 25] was 6.34. The “Mean Bliss synergy score” value [4, 26] was 4.98, the “Mean Loewe synergy score” value [4, 26] was 1.89 and the “Mean Bliss synergy score” value [4, 27] was 12.93. For the same compound, the “Mean Loewe synergy score” value [4, 27] was 8.26, the “Mean Bliss synergy score” value [4, 28] was 11.87 and 11.78 and the “Mean Loewe synergy score” value [4, 28] was 12.09 and 12.43. For the same compound, the “Mean Bliss synergy score” value [4, 29] was 4.74 and the “Mean Loewe synergy score” value [4, 29] was 0.94.
For `O=C1CCC(N2Cc3ccc(COC(=O)Nc4cc(OC(F)(F)F)ccc4F)cc3C2=O)C(=O)N1` (stereo not shown) [Compound 1-1, [2-(2,6-dioxopiperidin-3-yl)-3-oxo-2,3-dihydro-1H-isoindol-5-yl]methyl N-[2-fluoro-5-(trifluoromethoxy)phenyl]carbamate], the “Mean Bliss synergy score” value [1, 30] was 16.57, the “Mean Loewe synergy score” value [1, 30] was 4.95 and the “Mean Bliss synergy score” value [1, 31] was 16.57. For the same compound, the “Mean Loewe synergy score” value [1, 31] was 7.27, the “Mean Bliss synergy score” value [1, 32] was 10.90 and the “Mean Loewe synergy score” value [1, 32] was 9.33. The “Mean Bliss synergy score” value [2, 33] was 12.03, the “Mean Loewe synergy score” value [2, 33] was 1.96 and the “Mean Bliss synergy score” value [2, 34] was 13.27. The “Mean Loewe synergy score” value [2, 34] was −6.72, the “Mean Bliss synergy score” value [2, 35] was 10.48 and the “Mean Loewe synergy score” value [2, 35] was 8.11. For the same compound, the “Mean Bliss synergy score” value ([2]; combined with GNE-477 (21 nM to 10 uM), EBC-1 cell line, mean across dose response matrix, 72 hrs) was 12.03, the “Mean Bliss synergy score” value [3, 36] was −0.82 and the “Mean Loewe synergy score” value [3, 36] was 5.41. The “Mean Bliss synergy score” value [3, 37] was 6.44, the “Mean Loewe synergy score” value [3, 37] was 8.02 and the “Mean Bliss synergy score” value [3, 38] was 12.28. The “Mean Loewe synergy score” value [3, 38] was 15.50, the “Mean Bliss synergy score” value [3, 39] was 4.62 and the “Mean Loewe synergy score” value [3, 39] was 12.93. For the same compound, the “Mean Bliss synergy score” value [3, 40] was 4.80, the “Mean Loewe synergy score” value [3, 40] was 9.37 and the “Mean Bliss synergy score” value [3, 41] was 3.71. For the same compound, the “Mean Loewe synergy score” value [3, 41] was 11.94, the “Mean Bliss synergy score” value ([3]; combined with M2698, MDA-MB-231 cell line, mean across dose response matrix, 72 hrs) was 4.89 and the “Mean Bliss synergy score” value [4, 42] was 14.61. For the same compound, the “Mean Loewe synergy score” value [4, 42] was 11.03, the “Mean Bliss synergy score” value [4, 43] was 32.32 and the “Mean Loewe synergy score” value [4, 43] was 28.73. For the same compound, the “Mean Bliss synergy score” value [4, 44] was 29.55, the “Mean Loewe synergy score” value [4, 44] was 34.51 and the “Mean Bliss synergy score” value [4, 45] was 12.11. For the same compound, the “Mean Loewe synergy score” value [4, 45] was 12.09, the “Mean Bliss synergy score” value [4, 46] was 20.80 and the “Mean Loewe synergy score” value [4, 46] was 19.07. The “Mean Bliss synergy score” value [4, 47] was 18.29 and the “Mean Loewe synergy score” value [4, 47] was 22.14.
